Measured values reported in patent publication EP3720857B1, “2-OXO-5H-CHROMENO[4,3-B]PYRIDINES FOR USE IN THE TREATMENT OF HEPATITIS B” (Galapagos NV, priority 2017, dated 2019).

Each molecule was assayed on hepatitis virus B (HBV) infection (assay: HepG2 NTCP assay (HBcAg staining as marker of HBV infection)). Conditions: HepG2-NTCP cells infected with HBV, HBV core antigen (HBcAg) as marker of infection.
Type: cell-based
From the text: The principle of the hepG2-NTCP assay is to measure the effect of a test compound on the inhibition of the hepatitis virus B (HBV) infection compared to a reference compound. To be able to infect the hepatocellular carcinoma cells (HepG2) with HBV, HepG2 cells were stably transfected with the Na+-taurocholate co-transporting polypeptide (NTCP) receptor, also referred to as Sodium/bile acid cotransporter (SLC10A1), which is necessary for HBV infection. In this assay the HBV core antigen (HBcAg) is used as a marker of HBV infection. Nuclei count is used as an indication for compound toxicity.
On day one, HepG2-NTCP cells ((Ni et al., 2014)) are seeded at 5000 cells in 50 µL per well in assay medium (DMEM high glucose supplemented with 10% non-heat inactivated (non HI) fetal bovine serum (FBS), 1% P/S, 1% L-glutamine and 1% MEM NEAA) in 384 well plate and incubated at 37°C, 5% CO2 overnight.
Compounds are prepared as 10 point serial dilutions using 1/3 dilution steps in 100% DMSO starting from 10 mM highest concentration, unless otherwise requested for very potent compounds, which started from 5mM or 1mM stock. Compounds are further diluted 1/500 in assay medium.
A negative control (vehicle: 24 wells with 0.2% DMSO) and positive control (24 wells with 100nM Myrcludex B (Cas no.: 406461-66-3), 0.2% DMSO and in 10 point DR) are included in the experiments.
On the second day, 40µl medium is removed from the cells with the plate washer (Select 405 microplate washer, Biotek). 15 µL of diluted compound series is transferred to the assay plate and cells are infected with 15 µL of HBV mix (HBV virus, 4%PEG, 1%DMSO in assay medium). The infection is performed in assay medium containing final concentration of 1% DMSO. The assay plate is incubated at 37°C, 5% CO2 overnight.
The next day, 30µl compound and HBV mix are removed from the assay plate with the plate washer and 30 µL of compound series diluted 1/500 in assay medium containing final concentration of 2.5% DMSO is added to the cell assay plate. The assay plate is incubated at 37°C, 5% CO2 for 5 days.
After 5 days of incubation, supernatant is removed from the cells with the plate washer. Cells are fixed with 50 µL of 3.7% formaldehyde added with the Well mate (Matrix technologies) and incubated for 30 min at room temperature. After fixation, cells are washed four times with phosphate buffer saline (1xPBS, 137mM NaCl, 10mM na2HPO4, 2.7mM KCl, 1.8mM KH2PO4 at pH7.4). The cells are finally subjected to HBc staining.
First, the assay plate is blocked with blocking buffer (2%FBS, 3% BSA, 0.2% TritonX100 in PBS) for 1 h at room temperature (optional to block overnight at 4°C).
After 4 washes of PBST (1XPBS + 0.05% Tween) with the plate washer, the assay plate is incubated with 30 µL diluted primary antibody (1/700 Rabbit anti-HBV core antigen, Dako, B0586 or 1/350 Rabbit anti HBV core antigen, Invitrogen, PA516368) in blocking buffer and incubated for 90 min at room temperature.
After 4 washes of PBST with the plate washer, the assay plate is incubated with 50 µL of secondary antibody (Donkey-anti-rabbit Alexa 488 antibody, Lifetechnologies A21206) 1/500 diluted in blocking buffer and incubated for 60 min at room temperature and in the dark.
The assay plate is washed 4 times with PBST on the plate washer and incubated with 50µL of DAPI (Sigma D9542, stock 5mg/mL) 1/10000 diluted in PBS for 15-30 min at room temperature and in the dark. The assay plate is now ready for read out on the InCell Analyzer 2200 (GE Healthcare).
Raw data are generated following read-out performed on InCell 2200 and are imported into the galapagos LIMS for automated calculation of percentage inhibition (PIN) and toxicity by nuclei count, using the control wells mentioned above, and creation of Dose Response curves. Table V. Hepg2 NTCP assay activity of illustrative compounds of the invention

Row | SMILES | IC50 [nM]
1 | [2H]C([2H])([2H])Oc1cc2c(cc1Cl)-c1c(cc(C(=O)O)c(=O)n1C1CC1)C(C1(C)COC1)O2 (stereo not drawn) [Compound 58, 9-chloro-1-cyclopropyl-5-(3-methyloxetan-3-yl)-2-oxo-8-(trideuteriomethoxy)-5H-chromeno[4,3-b]pyridine-3-carboxylic acid] | 0.001 to 1
2 | COc1cc2c(cc1OCC(C)C)OC(C(C)C)c1cc(C(=O)O)c(=O)n(C3CC3)c1-2 (stereo not drawn) [Compound 38, 1-cyclopropyl-8-isobutoxy-5-isopropyl-9-methoxy-2-oxo-5H-chromeno[4,3-b]pyridine-3-carboxylic acid] | 1 to 20
3 | COCCCOc1ccc2c(c1Cl)OC(C(C)C)c1cc(C(=O)O)c(=O)n(C3CC3)c1-2 (stereo not drawn) [Compound 8, 7-chloro-1-cyclopropyl-5-isopropyl-8-(3-methoxypropoxy) -2-oxo-5H-chromeno[4,3-b]pyridine-3-carboxylic acid] | 1 to 20
4 | COCCCOc1cc2c(cc1F)-c1c(cc(C(=O)O)c(=O)n1C1CC1)C(C1(C)COC1)O2 (stereo not drawn) [Compound 49, 1-cyclopropyl-9-fluoro-8-(3-methoxypropoxy) -5-(3-methyloxetan-3-yl)-2-oxo-5H-chromeno[4,3-b]pyridine-3-carboxylic acid] | 0.001 to 1
5 | COc1cc2c(cc1OCC1CN(C)C(=O)O1)OC(C(C)C)c1cc(C(=O)O)c(=O)n(C3CC3)c1-2 (stereo not drawn) [Compound 29, 1-cyclopropyl-5-isopropyl-9-methoxy-8-[(3-methyl-2-oxooxazolidin-5-yl)methoxy]-2-oxo-5H-chromeno[4,3-b]pyridine-3-carboxylic acid] | 1 to 20
6 | COc1cc2c(cc1OC(C)C)OC(C(C)C)c1cc(C(=O)O)c(=O)n(C3CC3)c1-2 (stereo not drawn) [Compound 39, 1-cyclopropyl-8-isopropoxy-5-isopropyl-9-methoxy-2-oxo-5H-chromeno[4,3-b]pyridine-3-carboxylic acid] | 1 to 20
7 | COc1cc2c(cc1OCC1COCCO1)OC(C(C)C)c1cc(C(=O)O)c(=O)n(C3CC3)c1-2 (stereo not drawn) [Compound 33, 1-cyclopropyl-8-(1,4-dioxan-2-ylmethoxy)-5-isopropyl-9-methoxy-2-oxo-5H-chromeno[4,3-b]pyridine-3-carboxylic acid] | 1 to 20
8 | COc1cc2c(cc1OCC1CN(S(C)(=O)=O)C1)OC(C(C)C)c1cc(C(=O)O)c(=O)n(C3CC3)c1-2 (stereo not drawn) [Compound 32, 1-cyclopropyl-5-isopropyl-9-methoxy-8-[(1-methylsulfonylazetidin-3-yl)methoxy]-2-oxo-5H-chromeno[4,3-b]pyridine-3-carboxylic acid] | 1 to 20
9 | COCCCOc1cc2c(cc1C(F)(F)F)-c1c(cc(C(=O)O)c(=O)n1C1CC1)C(C(C)C)O2 (stereo not drawn) [Compound 62, 1-cyclopropyl-5-isopropyl-8-(3-methoxypropoxy) -2-oxo-9-(trifluoromethyl)-5H-chromeno[4,3-b]pyridine-3-carboxylic acid] | 0.001 to 1
10 | COc1cc2c(cc1OCC1CNC(=O)O1)OC(C(C)C)c1cc(C(=O)O)c(=O)n(C3CC3)c1-2 (stereo not drawn) [Compound 35, 1-cyclopropyl-5-isopropyl-9-methoxy-2-oxo-8-[(2-oxooxazolidin-5-yl)methoxy]-5H-chromeno[4,3-b]pyridine-3-carboxylic acid] | 20 to 100
11 | CC1(C2Oc3cc(OC(F)F)c(Cl)cc3-c3c2cc(C(=O)O)c(=O)n3C2CC2)COC1 (stereo not drawn) [Compound 70, 9-chloro-1-cyclopropyl-8-(difluoromethoxy)-5-(3-methyloxetan-3-yl)-2-oxo-5H-chromeno[4,3-b]pyridine-3-carboxylic acid] | 1 to 20
12 | CCCOc1cc2c(cc1OC)-c1c(cc(C(=O)O)c(=O)n1C1CC1)C(C(C)C)O2 (stereo not drawn) [Compound 40, 1-cyclopropyl-5-isopropyl-9-methoxy-2-oxo-8-propoxy-5H-chromeno[4,3-b]pyridine-3-carboxylic acid] | 1 to 20
13 | COCCCOc1cc2c(cc1Cl)-c1c(cc(C(=O)O)c(=O)n1C1CC(F)(F)C1)C(C(C)C)O2 (stereo not drawn) [Compound 23, 9-chloro-1-(3,3-difluorocyclobuty 1)-5-isopropyl-8-(3-methoxypropoxy) -2-oxo-5H-chromeno[4,3-b]pyridine-3-carboxylic acid] | 1 to 20
14 | CC(C)C1Oc2cc(OCC3COC3)c(Cl)cc2-c2c1cc(C(=O)O)c(=O)n2C1CC1 (stereo not drawn) [Compound 5, 9-chloro-1-cyclopropyl-5-isopropyl-8-(oxetan-3-ylmethoxy)-2-oxo-5H-chromeno[4,3-b]pyridine-3-carboxylic acid] | 0.001 to 1

More lines, now with the values ahead:

Row | IC50 [nM] | SMILES
15 | 0.001 to 1 | [2H]C1([2H])C(n2c3c(cc(C(=O)O)c2=O)C(C2(C)COC2)Oc2cc(OCCCOC)c(F)cc2-3)C1([2H])[2H] (stereo not drawn) [Compound 27, 9-fluoro-8-(3-methoxypropoxy) -5-(3-methyloxetan-3-yl)-2-oxo-1-(2,2,3,3-tetradeuteriocyclopropyl)-5H-chromeno[4,3-b]pyridine-3-carboxylic acid]
16 | 0.001 to 1 | COCCCOc1cc2c(cc1Cl)-c1c(cc(C(=O)O)c(=O)n1C1CC1)C(C1CCOCC1)O2 (stereo not drawn) [Compound 54, 9-chloro-1-cyclopropyl-8-(3-methoxypropoxy) -2-oxo-5-tetrahydropyran-4-yl-5H-chromeno[4,3-b]pyridine-3-carboxylic acid]
17 | 0.001 to 1 | COCCCOc1cc2c(cc1F)-c1c(cc(C(=O)O)c(=O)n1C1CCC1)C(C1(C)COC1)O2 (stereo not drawn) [Compound 26, 1-cyclobutyl-9-fluoro-8-(3-methoxypropoxy) -5-(3-methyloxetan-3-yl)-2-oxo-5H-chromeno[4,3-b]pyridine-3-carboxylic acid]
18 | 0.001 to 1 | COCCCOc1cc2c(cc1Cl)-c1c(cc(C(=O)O)c(=O)n1C1CC1)C(C1CCOC1)O2 (stereo not drawn) [Compound 53, 9-chloro-1-cyclopropyl-8-(3-methoxypropoxy) -2-oxo-5-tetrahydrofuran-3-yl-5H-chromeno[4,3-b]pyridine-3-carboxylic acid]
19 | 1 to 20 | O=C(O)c1cc2c(n(C3CC3)c1=O)-c1cc(Cl)c(Cl)cc1OC2 [Compound 61, 8,9-dichloro-1-cyclopropyl-2-oxo-5H-chromeno[4,3-b]pyridine-3-carboxylic acid]
20 | 0.001 to 1 | COCCOc1cc2c(cc1Cl)-c1c(cc(C(=O)O)c(=O)n1C1CC1)C(C1(C)COC1)O2 (stereo not drawn) [Compound 25, 9-chloro-1-cyclopropyl-8-(2-methoxyethoxy)-5-(3-methyloxetan-3-yl)-2-oxo-5H-chromeno [4,3-b]pyridine-3-carboxylic acid]
21 | > 100 | COc1cc2c(cc1OCc1ccccc1)OC(C(C)C)c1cc(C(=O)O)c(=O)n(C3CC3)c1-2 (stereo not drawn) [Compound 41, 8-benzyloxy-1-cyclopropyl-5-isopropyl-9-methoxy-2-oxo-5H-chromeno[4,3-b]pyridine-3-carboxylic acid]
22 | 1 to 20 | COc1cc2c(cc1Cl)-c1c(cc(C(=O)O)c(=O)n1C1CC1)[C@@H](C1(C)COC1)O2 [Compound 66, (5S)-9-chloro-1-cyclopropyl-8-methoxy-5-(3-methyloxetan-3-yl)-2-oxo-5H-chromeno[4,3-b]pyridine-3-carboxylic acid]
23 | 1 to 20 | CC(C)C1Oc2cc(OCC3COC3)c(F)cc2-c2c1cc(C(=O)O)c(=O)n2C1CC1 (stereo not drawn) [Compound 64, 1-cyclopropyl-9-fluoro-5-isopropyl-8-(oxetan-3-ylmethoxy)-2-oxo-5H-chromeno[4,3-b]pyridine-3-carboxylic acid]
24 | 1 to 20 | COc1cc2c(cc1OCCCC#N)OC(C(C)C)c1cc(C(=O)O)c(=O)n(C3CC3)c1-2 (stereo not drawn) [Compound 30, 8-(3-cyanopropoxy)-1-cyclopropyl-5-isopropyl-9-methoxy-2-oxo-5H-chromeno[4,3-b]pyridine-3-carboxylic acid]
